Source: patent US20240208904A1, “CRYSTALLINE POTASSIUM SALT OF 1-ETHYL- N -((1,2,3,5,6,7-HEXAHYDRO- S -INDACEN-4-YL)CARBAMOYL)PIPERIDINE-4 -SULFONAMIDE” (Hoffmann-La Roche Inc., priority 2021, published 2024)
“Also recorded” adds a separate entry of the source.

Key:
[1] = for Limit solubilities after 48 h at 20° C.; measured by Q 1H NMR: 4-aminoindacene (level of hydrolytic precursor measured in solution): 50 mg/ml
Description: (§1) Crystalline 1-ethyl-N-((1,2,3,5,6,7-hexahydro-s-indacen-4-yl)carbamoyl)piperidine-4-sulfonamide salts (50 mg, 1 wt.) or crystalline 1-ethyl-N-((1,2,3,5,6,7-hexahydro-s-indacen-4-yl)carbamoyl)piperidine-4-sulfonamide free acid (as a control) (50 mg, 1 wt.) were stirred in purified water (1000 μl, 20 vol.) at 20° C. Limit solubilities (mg/ml) were determined after 48 hours at 20° C. measured by Q ^1H NMR (measured against an internal standard, 2,3,5,6-tetrachloronitrobenzene).

[2] = General assessment of polymorph solubility and stability to water/humidity; assay type: physicochemical
[3] = Mechanical grinding of Form A, XRPD analysis; assay type: physicochemical; conditions: ground for 24 hours
Description: Form A (50.4 mg) was ground for 24 hours. The product was recovered and analysed by XRPD to determine if any phase changes had occurred.

[4] = Water content / hygroscopicity of polymorphs; assay type: physicochemical
[5] = Competitive suspension equilibration of Form A and Form D in anhydrous acetonitrile; assay type: physicochemical; conditions: versus Form D, 20° C. or 40° C., 96 hours
Description: Form A (50 mg, 1 wt.) and Form D (amounts see Table 16) were charged to a vial and anhydrous acetonitrile (1000 μl, 20 vol.) was added. The vials were stirred at 20° C. or 40° C.for 96 hours.

[6] = Solubility determinations: limit solubility in purified water by Q 1H NMR
Description: as §1

## CCN1CCC(S(=O)(=O)NC(=O)Nc2c3c(cc4c2CCC4)CCC3)CC1 [Form 3C, 1-ethyl-N-((1,2,3,5,6,7-hexahydro-s-indacen-4-yl)carbamoyl)piperidine-4-sulfonamide]
[1]
  Limit solubilities after 48 h at 20° C.; measured by Q 1H NMR: Free acid form equivalent: 4.5 mg/mL
  Limit solubilities after 48 h at 20° C.; measured by Q 1H NMR: 4-aminoindacene (level of hydrolytic precursor measured in solution): 2.6 mg/mL

## CCN1CCC(S(=O)(=O)NC(=O)Nc2c3c(cc4c2CCC4)CCC3)CC1 [Form 3J, 1-ethyl-N-((1,2,3,5,6,7-hexahydro-s-indacen-4-yl)carbamoyl)piperidine-4-sulfonamide]
[1]
  Limit solubilities after 48 h at 20° C.; measured by Q 1H NMR: Free acid form equivalent: 0.0 mg/mL
  Limit solubilities after 48 h at 20° C.; measured by Q 1H NMR: 4-aminoindacene (level of hydrolytic precursor measured in solution): 0.1 mg/mL

## CCN1CCC(S(=O)(=O)NC(=O)Nc2c3c(cc4c2CCC4)CCC3)CC1 [Form 3B, 1-ethyl-N-((1,2,3,5,6,7-hexahydro-s-indacen-4-yl)carbamoyl)piperidine-4-sulfonamide]
[1]
  Limit solubilities after 48 h at 20° C.; measured by Q 1H NMR: Free acid form equivalent: 6.3 mg/mL
  Limit solubilities after 48 h at 20° C.; measured by Q 1H NMR: 4-aminoindacene (level of hydrolytic precursor measured in solution): 0.0 mg/mL

## CCN1CCC(S(=O)(=O)NC(=O)Nc2c3c(cc4c2CCC4)CCC3)CC1.[K] [Form A, 1-Ethyl-N-((1,2,3,5,6,7-hexahydro-s-indacen-4-yl)carbamoyl)piperidine-4-sulfonamide Monopotassium Form A]
[2]
  Solubility (qualitative): good solubility
[3]
  Phase change after grinding (XRPD): no significant change of polymorphic form; also recorded: stable to prolonged grinding conditions
[4]
  Hygroscopicity: hygroscopic
[4]; depends on preparation and storage conditions
  Non-assimilated water observed: up to 3%
[5]
  Thermodynamic stability of polymorphic form: more thermodynamically stable polymorphic form; also recorded: thermodynamically stable

## CCN1CCC(S(=O)(=O)NC(=O)Nc2c3c(cc4c2CCC4)CCC3)CC1 [Form 3E, 1-ethyl-N-((1,2,3,5,6,7-hexahydro-s-indacen-4-yl)carbamoyl)piperidine-4-sulfonamide]
[1]
  Limit solubilities after 48 h at 20° C.; measured by Q 1H NMR: Free acid form equivalent: 3.3 mg/mL
  Limit solubilities after 48 h at 20° C.; measured by Q 1H NMR: 4-aminoindacene (level of hydrolytic precursor measured in solution): 0.8 mg/mL

## CCN1CCC(S(=O)(=O)NC(=O)Nc2c3c(cc4c2CCC4)CCC3)CC1 [Form 3A, 1-ethyl-N-((1,2,3,5,6,7-hexahydro-s-indacen-4-yl)carbamoyl)piperidine-4-sulfonamide]
[1]
  Limit solubilities after 48 h at 20° C.; measured by Q 1H NMR: Free acid form equivalent: 38.0 mg/mL
  Limit solubilities after 48 h at 20° C.; measured by Q 1H NMR: 4-aminoindacene (level of hydrolytic precursor measured in solution): 0.0 mg/mL

## CCN1CCC(S(=O)(=O)NC(=O)Nc2c3c(cc4c2CCC4)CCC3)CC1 [Form 3F, 1-ethyl-N-((1,2,3,5,6,7-hexahydro-s-indacen-4-yl)carbamoyl)piperidine-4-sulfonamide]
[1]
  Limit solubilities after 48 h at 20° C.; measured by Q 1H NMR: Free acid form equivalent: 2.1 mg/mL
  Limit solubilities after 48 h at 20° C.; measured by Q 1H NMR: 4-aminoindacene (level of hydrolytic precursor measured in solution): 0.8 mg/mL

## CCN1CCC(S(=O)(=O)NC(=O)Nc2c3c(cc4c2CCC4)CCC3)CC1.[K] [Form D, 1-Ethyl-N-((1,2,3,5,6,7-hexahydro-s-indacen-4-yl)carbamoyl)piperidine-4-sulfonamide Monopotassium Form D]
[2]; water as solvent or co-solvent or humidity (such as >30% RH at 25° C.)
  Stability in the presence of water: stable in the presence of water

## CCN1CCC(S(=O)(=O)NC(=O)Nc2c3c(cc4c2CCC4)CCC3)CC1 [Form 3I, 1-ethyl-N-((1,2,3,5,6,7-hexahydro-s-indacen-4-yl)carbamoyl)piperidine-4-sulfonamide]
[1]
  Limit solubilities after 48 h at 20° C.; measured by Q 1H NMR: Free acid form equivalent: 0.3 mg/mL
  Limit solubilities after 48 h at 20° C.; measured by Q 1H NMR: 4-aminoindacene (level of hydrolytic precursor measured in solution): 0.0 mg/mL

## CCN1CCC(S(=O)(=O)NC(=O)Nc2c3c(cc4c2CCC4)CCC3)CC1 [Form 3H, 1-ethyl-N-((1,2,3,5,6,7-hexahydro-s-indacen-4-yl)carbamoyl)piperidine-4-sulfonamide]
[1]
  Limit solubilities after 48 h at 20° C.; measured by Q 1H NMR: Free acid form equivalent: 0.6 mg/mL
  Limit solubilities after 48 h at 20° C.; measured by Q 1H NMR: 4-aminoindacene (level of hydrolytic precursor measured in solution): 0.0 mg/mL

## CCN1CCC(S(=O)(=O)NC(=O)Nc2c3c(cc4c2CCC4)CCC3)CC1 [Form 3D, 1-ethyl-N-((1,2,3,5,6,7-hexahydro-s-indacen-4-yl)carbamoyl)piperidine-4-sulfonamide]
[6]; purified water, 20 °C, water, thermodynamic from solid, Limit solubilities after 48 h at 20° C., measured by Q 1H NMR: Free acid form equivalent, 50 mg in purified water 1000 μl (20 vol.), 20° C., 48 h
  solubility at 48 h: 3900 µg/mL
[6]; stirred in purified water (20 vol.) at 20° C., 18 hours
  Observation at 18 hours: suspension

## CCN1CCC(S(=O)(=O)NC(=O)Nc2c3c(cc4c2CCC4)CCC3)CC1 [Form 3G, 1-ethyl-N-((1,2,3,5,6,7-hexahydro-s-indacen-4-yl)carbamoyl)piperidine-4-sulfonamide]
[1]
  Limit solubilities after 48 h at 20° C.; measured by Q 1H NMR: Free acid form equivalent: 1.5 mg/mL
  Limit solubilities after 48 h at 20° C.; measured by Q 1H NMR: 4-aminoindacene (level of hydrolytic precursor measured in solution): 0.5 mg/mL
